pIC50, pKi: −log10 of the molar value. Activity calls are given as the source filed them. No cut-off for these calls is given here.
Key:
[1] = molecular target: Acetylcholinesterase (Electrophorus electricus) (UniProt O42275); test: Inhibition of electric eel AChE preincubated for 15 mins at 10 uM followed by addition of acetylthiocholine iodide as substrate measured after 30 mins by Ellman's microplate assay
[2] = molecular target: Cholinesterase (Equus caballus) (UniProt P81908); test: Inhibition of equine serum BChE preincubated for 15 mins at 10 uM followed by addition of S-butyrylthiocholine iodide as substrate measured after 30 mins by Ellman's microplate assay
Cholinesterase (Equus caballus), sequence (P81908 whole entry): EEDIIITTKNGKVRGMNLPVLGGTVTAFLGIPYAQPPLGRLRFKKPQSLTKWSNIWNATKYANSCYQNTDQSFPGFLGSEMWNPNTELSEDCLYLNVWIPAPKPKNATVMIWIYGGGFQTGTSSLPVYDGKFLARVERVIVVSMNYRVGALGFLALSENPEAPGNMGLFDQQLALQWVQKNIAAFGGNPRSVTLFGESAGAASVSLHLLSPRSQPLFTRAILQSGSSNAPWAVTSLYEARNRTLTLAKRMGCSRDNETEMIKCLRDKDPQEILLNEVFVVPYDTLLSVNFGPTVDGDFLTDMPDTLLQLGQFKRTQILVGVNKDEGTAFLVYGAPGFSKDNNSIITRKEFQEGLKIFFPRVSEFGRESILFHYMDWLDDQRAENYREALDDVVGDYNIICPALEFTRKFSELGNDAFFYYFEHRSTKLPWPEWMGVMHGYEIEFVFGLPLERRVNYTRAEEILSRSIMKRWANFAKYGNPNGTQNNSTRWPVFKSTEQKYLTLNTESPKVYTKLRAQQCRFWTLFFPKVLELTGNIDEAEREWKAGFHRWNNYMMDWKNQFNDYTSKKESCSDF

Acetylcholinesterase [3] = molecular target: T1, Acetylcholinesterase (Electrophorus electricus, UniProt O42275)
T1 sequence (O42275 whole entry): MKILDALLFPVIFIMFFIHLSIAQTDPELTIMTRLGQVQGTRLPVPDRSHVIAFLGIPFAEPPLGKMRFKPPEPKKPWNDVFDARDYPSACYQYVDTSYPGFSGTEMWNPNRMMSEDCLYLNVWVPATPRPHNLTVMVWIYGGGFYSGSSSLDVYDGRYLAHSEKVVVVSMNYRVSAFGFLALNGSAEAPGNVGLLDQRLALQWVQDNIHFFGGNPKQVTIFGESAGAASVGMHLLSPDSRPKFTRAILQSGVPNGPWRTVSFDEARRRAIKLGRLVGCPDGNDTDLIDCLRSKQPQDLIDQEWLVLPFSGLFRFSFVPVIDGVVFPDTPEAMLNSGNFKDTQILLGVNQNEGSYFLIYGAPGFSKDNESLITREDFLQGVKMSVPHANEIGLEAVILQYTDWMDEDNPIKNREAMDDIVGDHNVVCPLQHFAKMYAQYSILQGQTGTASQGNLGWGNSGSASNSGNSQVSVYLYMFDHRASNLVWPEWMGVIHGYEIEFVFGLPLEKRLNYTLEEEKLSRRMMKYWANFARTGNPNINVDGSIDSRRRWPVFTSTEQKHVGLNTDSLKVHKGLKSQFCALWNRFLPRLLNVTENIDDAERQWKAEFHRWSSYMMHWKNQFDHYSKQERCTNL
Description: Inhibition of electric eel AChE preincubated for 15 mins followed by addition of acetylthiocholine iodide as substrate measured after 30 mins by Ellman's microplate assay

Cholinesterase [4] = molecular target: T2, Cholinesterase (Equus caballus, UniProt P81908)
T2 sequence (P81908 whole entry): as the sequence (P81908 whole entry) above
Description: Inhibition of equine serum BChE preincubated for 15 mins followed by addition of S-butyrylthiocholine iodide as substrate measured after 30 mins by Ellman's microplate assay

Acetylcholinesterase [5] = molecular target: T1, Acetylcholinesterase; test: Mixed type inhibition of electric eel AChE preincubated for 15 mins followed by addition of acetylthiocholine iodide as substrate measured after 30 mins by Lineweaver-Burk double reciprocal plot analysis
Cholinesterase [6] = molecular target: T2, Cholinesterase; test: Mixed type inhibition of equine serum BChE preincubated for 15 mins followed by addition of S-butyrylthiocholine iodide as substrate measured after 30 mins by Lineweaver-Burk double reciprocal plot analysis

Acetylcholinesterase (Electrophorus electricus), sequence (O42275 24-633 limits assumed): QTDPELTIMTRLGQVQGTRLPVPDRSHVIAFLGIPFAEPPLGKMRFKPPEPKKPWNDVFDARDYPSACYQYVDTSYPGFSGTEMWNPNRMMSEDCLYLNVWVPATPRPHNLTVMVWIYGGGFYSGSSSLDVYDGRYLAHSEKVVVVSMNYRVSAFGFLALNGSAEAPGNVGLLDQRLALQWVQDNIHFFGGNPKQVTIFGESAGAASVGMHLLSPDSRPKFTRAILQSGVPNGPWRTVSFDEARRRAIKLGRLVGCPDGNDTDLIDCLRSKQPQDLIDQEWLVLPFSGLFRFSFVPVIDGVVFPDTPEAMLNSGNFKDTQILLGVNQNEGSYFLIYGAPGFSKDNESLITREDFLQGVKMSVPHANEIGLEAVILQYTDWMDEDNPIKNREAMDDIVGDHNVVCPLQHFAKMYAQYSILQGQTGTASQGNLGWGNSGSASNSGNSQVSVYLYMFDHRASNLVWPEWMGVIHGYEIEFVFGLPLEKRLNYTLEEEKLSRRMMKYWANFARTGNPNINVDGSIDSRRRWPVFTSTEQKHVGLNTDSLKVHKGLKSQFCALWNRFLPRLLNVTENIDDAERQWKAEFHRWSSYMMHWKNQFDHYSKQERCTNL

O=C(C1=C(O)/C(=C/c2ccccc2F)CCC1)c1ccccc1
inhibition [1]: Active | inhibition [2]: inactive | pIC50 (Acetylcholinesterase [3]): 5.18

O=C(C1=C(O)/C(=C/c2ccc(O)c(O)c2)CCC1)c1ccccc1
inhibition [1]: inactive | inhibition [2]: Active | pIC50 (Cholinesterase [4]): 5.19

O=C(C1=C(O)/C(=C/c2ccc(O)c(Br)c2)CCC1)c1ccccc1
inhibition [1]: inactive | inhibition [2]: Active | pIC50 (Cholinesterase [4]): 5.33

O=C(C1=C(O)/C(=C/c2ccc(O)c(Cl)c2)CCC1)c1ccccc1
inhibition [1]: inactive | inhibition [2]: Active | pIC50 (Cholinesterase [4]): 4.97

O=C(C1=C(O)/C(=C/c2ccc(Cl)cc2)CCC1)c1ccccc1
inhibition [1]: Active | inhibition [2]: inactive | pIC50 (Acetylcholinesterase [3]): 5.12

O=C(C1=C(O)/C(=C/c2ccc(Cl)c(Cl)c2)CCC1)c1ccccc1
inhibition [1]: Active | inhibition [2]: inactive | pIC50 (Acetylcholinesterase [3]): 5.01

O=C(C1=C(O)/C(=C/c2ccc(Br)c(Br)c2)CCC1)c1ccccc1
inhibition [1]: Active | inhibition [2]: inactive | pIC50 (Acetylcholinesterase [3]): 5.05

COc1cc(/C=C2\CCCC(C(=O)c3ccccc3)=C2O)ccc1O
inhibition [1]: inactive | inhibition [2]: inactive

O=C(C1=C(O)/C(=C/c2ccc(Cc3ccccc3)cc2)CCC1)c1ccccc1
inhibition [1]: Active | inhibition [2]: inactive | pIC50 (Acetylcholinesterase [3]): 5.08

Cc1cccc(/C=C2\CCCC(C(=O)c3ccccc3)=C2O)c1
inhibition [1]: Active | inhibition [2]: inactive | pIC50 (Acetylcholinesterase [3]): 5.07

O=C(C1=C(O)/C(=C/c2ccccc2)CCC1)c1ccccc1
inhibition [1]: inactive | inhibition [2]: inactive

O=C(C1=C(O)/C(=C/c2cccc(Cc3ccccc3)c2)CCC1)c1ccccc1
inhibition [1]: Active | inhibition [2]: inactive | pIC50 (Acetylcholinesterase [3]): 5.11

O=C(C1=C(O)/C(=C/c2cccc(OCCN3CCCCC3)c2)CCC1)c1ccccc1
inhibition [1]: Active | inhibition [2]: Active | pIC50 (Acetylcholinesterase [3]): 5.51 | pIC50 (Cholinesterase [4]): 5.85

O=C(C1=C(O)/C(=C/c2ccc(OCCN3CCCC3)cc2)CCC1)c1ccccc1
inhibition [1]: Active | inhibition [2]: Active | pIC50 (Acetylcholinesterase [3]): 5.70 | pIC50 (Cholinesterase [4]): 5.64

O=C(C1=C(O)/C(=C/c2ccc(OCCN3CCCCC3)cc2)CCC1)c1ccccc1
inhibition [1]: Active | inhibition [2]: Active | pKi (Acetylcholinesterase [5]): 5.72 | pIC50 (Acetylcholinesterase [3]): 5.80 | pIC50 (Cholinesterase [4]): 5.57

O=C(C1=C(O)/C(=C/c2ccc3ccccc3c2)CCC1)c1ccccc1
inhibition [1]: Active | inhibition [2]: inactive | pIC50 (Acetylcholinesterase [3]): 5.08

Cc1ccc(/C=C2\CCCC(C(=O)c3ccccc3)=C2O)cc1
inhibition [1]: Active | inhibition [2]: inactive | pIC50 (Acetylcholinesterase [3]): 5.07

COc1cccc(/C=C2\CCCC(C(=O)c3ccccc3)=C2O)c1OC
inhibition [1]: inactive | inhibition [2]: inactive

COc1ccc(/C=C2\CCCC(C(=O)c3ccccc3)=C2O)cc1OC
inhibition [1]: inactive | inhibition [2]: inactive

COc1cc(/C=C2\CCCC(C(=O)c3ccccc3)=C2O)cc(OC)c1OC
inhibition [1]: inactive | inhibition [2]: inactive

COc1ccc(/C=C2\CCCC(C(=O)c3ccccc3)=C2O)c(OC)c1OC
inhibition [1]: inactive | inhibition [2]: inactive

O=C(C1=C(O)/C(=C/c2cccc(Cl)c2)CCC1)c1ccccc1
inhibition [1]: inactive | inhibition [2]: inactive

O=C(C1=C(O)/C(=C/c2cccc(O)c2)CCC1)c1ccccc1
inhibition [1]: inactive | inhibition [2]: inactive

COc1ccc(/C=C2\CCCC(C(=O)c3ccccc3)=C2O)cc1
inhibition [1]: inactive | inhibition [2]: inactive

O=C(C1=C(O)/C(=C/c2cccc(OCCN3CCCC3)c2)CCC1)c1ccccc1
inhibition [1]: Active | inhibition [2]: Active | pKi (Cholinesterase [6]): 6.70 | pIC50 (Acetylcholinesterase [3]): 5.46 | pIC50 (Cholinesterase [4]): 6.22

COc1ccccc1/C=C1\CCCC(C(=O)c2ccccc2)=C1O
inhibition [1]: inactive | inhibition [2]: inactive

O=C(C1=C(O)/C(=C/c2cccc(Cl)c2Cl)CCC1)c1ccccc1
inhibition [1]: Active | inhibition [2]: inactive | pIC50 (Acetylcholinesterase [3]): 5.23

O=C(C1=C(O)/C(=C/c2cccs2)CCC1)c1ccccc1
inhibition [1]: Active | inhibition [2]: inactive | pIC50 (Acetylcholinesterase [3]): 5.29

COc1cccc(/C=C2\CCCC(C(=O)c3ccccc3)=C2O)c1
inhibition [1]: Active | inhibition [2]: inactive | pIC50 (Acetylcholinesterase [3]): 5.13

O=C(C1=C(O)/C(=C/c2ccc(Cl)cc2Cl)CCC1)c1ccccc1
inhibition [1]: Active | inhibition [2]: inactive | pIC50 (Acetylcholinesterase [3]): 5.27

O=C(C1=C(O)/C(=C/c2cccc3ccccc23)CCC1)c1ccccc1
inhibition [1]: Active | inhibition [2]: inactive | pIC50 (Acetylcholinesterase [3]): 5.12

COc1ccc(OC)c(/C=C2\CCCC(C(=O)c3ccccc3)=C2O)c1
inhibition [1]: inactive | inhibition [2]: inactive

O=C(C1=C(O)/C(=C/c2cccc(F)c2)CCC1)c1ccccc1
inhibition [1]: Active | inhibition [2]: inactive | pIC50 (Acetylcholinesterase [3]): 5.01

COc1ccc(/C=C2\CCCC(C(=O)c3ccccc3)=C2O)cc1O
inhibition [1]: inactive | inhibition [2]: inactive

O=C(C1=C(O)/C(=C/c2ccc(Br)cc2)CCC1)c1ccccc1
inhibition [1]: Active | inhibition [2]: inactive | pIC50 (Acetylcholinesterase [3]): 5.06

Cc1ccc(/C=C2\CCCC(C(=O)c3ccccc3)=C2O)s1
inhibition [1]: Active | inhibition [2]: inactive | pIC50 (Acetylcholinesterase [3]): 5.23

O=C(C1=C(O)/C(=C/c2ccccc2Br)CCC1)c1ccccc1
inhibition [1]: Active | inhibition [2]: inactive | pIC50 (Acetylcholinesterase [3]): 5.08

O=C(C1=C(O)/C(=C/c2ccccc2Cl)CCC1)c1ccccc1
inhibition [1]: inactive | inhibition [2]: inactive | pIC50 (Acetylcholinesterase [3]): 5.09

O=C(C1=C(O)/C(=C/c2ccc(O)cc2)CCC1)c1ccccc1
inhibition [1]: inactive | inhibition [2]: inactive

O=C(C1=C(O)/C(=C/c2ccc(F)cc2)CCC1)c1ccccc1
inhibition [1]: Active | inhibition [2]: inactive | pIC50 (Acetylcholinesterase [3]): 5.18

O=C(C1=C(O)/C(=C/c2ccc(F)c(F)c2)CCC1)c1ccccc1
inhibition [1]: Active | inhibition [2]: inactive | pIC50 (Acetylcholinesterase [3]): 5.06

From ChEMBL document CHEMBL3813676, “2-Benzoyl-6-benzylidenecyclohexanone analogs as potent dual inhibitors of acetylcholinesterase and butyrylcholinesterase” (Bioorg Med Chem, 2016)
